Among the data in patent US12024503B2, “Benzethers and anilines of pyrazolyl-amino-pyrimidinyl derivatives, and compositions and methods thereof” (LYNK PHARMACEUTICALS CO. LTD., priority 2019, dated 2024) are IC50 values, retold here.

Like-named read-outs stand apart in the source and are kept apart here.

What all share (type): biochemical
One experiment concerns the target T1, JAK1 (Homo sapiens, UniProt P23458).
T1 construct: purchased Carna Biosciences
In words: JAK1 microfluidic kinase assay (Caliper EZ Reader II, FAM labeled peptide substrate). The conditions noted are these: (5 nM), 1 mM ATP. Here is the method: (§1) Compounds were tested against JAK1, JAK2, JAK2V617F and TYK2.
(§2) Assay Formats: JAK activity was determined in the reaction buffer 50 mM HEPES, 0.01% Brij35, 10 mMMgCl2, 2 mMDTT by a microfluidic assay. The phosphorylation of a FAM labeled peptide substrate was monitored in the Caliper EZ Reader II (Perkin Elmer). The assay condition for each batch of enzyme (Carna Biosciences) was optimized to obtain 10% conversion rate of peptide substrate.
(§3) The test compounds were dissolved in DMSO to a stock concentration of 10 mM. 3-fold serially diluted compounds with top concentration of 5 μM were pre-incubated with JAK1, JAK2, JAK2V617F or TYK2 for 10 min at ambient temperature. The final DMSO concentration of assay mixture was 1%. FAM labeled peptide substrate (final concentration […]) and ATP (1 mM concentration) were sequentially added to initiate the kinase reaction at 28° C. The reaction was stopped by adding 50 mMEDTA. The reaction time for JAK1, JAK2, JAK2V617F and TYK2 was 120 min, 20 min, 30 min and 10 min, respectively.
(§4) The well in the test plate without enzyme was defined as 100% inhibition. And the well without compound but with equivalent DMSO was defined as no inhibition. The percent inhibition was calculated by the following formula. % Inhibition=(Conversionmax−Conversionsample)/(Conversionmax−Conversionmin)*100Conversionmax means the conversion rate in the positive well without addition of compound Conversionmin means the conversion rate in the well without addition of enzyme Conversionsample means the conversion rate of test compounds
(§5) The dose-response (percent inhibition) curve was plotted and IC50 values were determined by GraphPad software.

The target of a further experiment is T2, JAK2 (Homo sapiens, UniProt O60674).
T2 construct: purchased Carna Biosciences
In words: JAK2 microfluidic kinase assay (Caliper EZ Reader II, FAM labeled peptide substrate). As to conditions: (0.25 nM), 1 mM ATP. How it is done:
as §1, §2, §3, §4, §5

In another experiment the target is T3, JAK2V617F (Homo sapiens, UniProt O60674, V617F).
T3 construct: purchased Carna Biosciences
In words: JAK2V617F microfluidic kinase assay (Caliper EZ Reader II, FAM labeled peptide substrate). As to conditions: (2.5 nM), 1 mM ATP. How it is done:
as §1, §2, §3, §4, §5

The target of another experiment is T4, TYK2 (Homo sapiens, UniProt P29597).
T4 construct: purchased Carna Biosciences
As to the kind of experiment: TYK2 microfluidic kinase assay (Caliper EZ Reader II, FAM labeled peptide substrate). The conditions noted are these: (2.5 nM), 1 mM ATP. How it is done: as §1, §2, §3, §4, §5

Where [1] appears, read: Table 3B, literature compounds, read-out: JAK1 (5 nM) (1 mM ATP).
[2] abbreviates: Table 3B, literature compounds, read-out: JAK2 (0.25 nM) (1 mM ATP).
Setting [3] is: Table 3B, literature compounds, read-out: J2V617F (2.5 nM) (1 mM ATP).
[4] abbreviates: Table 3B, literature compounds, read-out: TYK2 (2.5 nM) (1 mM ATP).
[5] abbreviates: Table 2, read-out: IC50 JAK1 (5 nM) (1 mM ATP).
[6] abbreviates: Table 2, read-out: IC50 JAK2 (0.25 nM) (1 mM ATP).
Setting [7] is: Table 2, read-out: IC50 J2V617F (2.5 nM) (1 mM ATP).
Setting [8] is: Table 2, read-out: IC50 TYK2 (2.5 nM) (1 mM ATP).

T2 sequence (O60674 whole entry): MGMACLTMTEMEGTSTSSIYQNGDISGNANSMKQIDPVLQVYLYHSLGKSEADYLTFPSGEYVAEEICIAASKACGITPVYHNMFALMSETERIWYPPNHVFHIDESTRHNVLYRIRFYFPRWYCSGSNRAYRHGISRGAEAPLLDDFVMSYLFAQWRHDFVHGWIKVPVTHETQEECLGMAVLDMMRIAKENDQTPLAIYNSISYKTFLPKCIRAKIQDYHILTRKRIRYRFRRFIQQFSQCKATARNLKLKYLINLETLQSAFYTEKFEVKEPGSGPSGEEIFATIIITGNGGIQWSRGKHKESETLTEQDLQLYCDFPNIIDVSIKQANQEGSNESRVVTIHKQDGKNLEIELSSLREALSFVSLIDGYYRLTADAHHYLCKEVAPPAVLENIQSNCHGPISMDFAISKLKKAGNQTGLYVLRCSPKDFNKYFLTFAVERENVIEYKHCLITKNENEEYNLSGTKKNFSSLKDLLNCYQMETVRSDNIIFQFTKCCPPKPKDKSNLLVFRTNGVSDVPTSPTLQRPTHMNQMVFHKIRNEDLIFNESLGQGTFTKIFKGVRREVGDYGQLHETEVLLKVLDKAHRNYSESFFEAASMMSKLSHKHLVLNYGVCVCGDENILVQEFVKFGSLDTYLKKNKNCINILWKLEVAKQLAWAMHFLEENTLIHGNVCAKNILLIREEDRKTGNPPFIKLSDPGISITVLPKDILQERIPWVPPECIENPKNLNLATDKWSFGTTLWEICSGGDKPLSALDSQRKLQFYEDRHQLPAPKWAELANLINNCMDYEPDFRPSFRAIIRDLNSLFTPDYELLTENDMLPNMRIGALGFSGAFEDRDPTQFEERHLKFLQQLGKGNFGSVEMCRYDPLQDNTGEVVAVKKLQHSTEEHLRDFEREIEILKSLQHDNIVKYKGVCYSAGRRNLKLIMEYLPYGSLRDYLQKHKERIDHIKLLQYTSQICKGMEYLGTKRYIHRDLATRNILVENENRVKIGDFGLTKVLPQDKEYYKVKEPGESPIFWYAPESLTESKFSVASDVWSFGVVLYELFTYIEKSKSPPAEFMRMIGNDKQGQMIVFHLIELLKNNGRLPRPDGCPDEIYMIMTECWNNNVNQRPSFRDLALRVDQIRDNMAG
T4 sequence (P29597 whole entry): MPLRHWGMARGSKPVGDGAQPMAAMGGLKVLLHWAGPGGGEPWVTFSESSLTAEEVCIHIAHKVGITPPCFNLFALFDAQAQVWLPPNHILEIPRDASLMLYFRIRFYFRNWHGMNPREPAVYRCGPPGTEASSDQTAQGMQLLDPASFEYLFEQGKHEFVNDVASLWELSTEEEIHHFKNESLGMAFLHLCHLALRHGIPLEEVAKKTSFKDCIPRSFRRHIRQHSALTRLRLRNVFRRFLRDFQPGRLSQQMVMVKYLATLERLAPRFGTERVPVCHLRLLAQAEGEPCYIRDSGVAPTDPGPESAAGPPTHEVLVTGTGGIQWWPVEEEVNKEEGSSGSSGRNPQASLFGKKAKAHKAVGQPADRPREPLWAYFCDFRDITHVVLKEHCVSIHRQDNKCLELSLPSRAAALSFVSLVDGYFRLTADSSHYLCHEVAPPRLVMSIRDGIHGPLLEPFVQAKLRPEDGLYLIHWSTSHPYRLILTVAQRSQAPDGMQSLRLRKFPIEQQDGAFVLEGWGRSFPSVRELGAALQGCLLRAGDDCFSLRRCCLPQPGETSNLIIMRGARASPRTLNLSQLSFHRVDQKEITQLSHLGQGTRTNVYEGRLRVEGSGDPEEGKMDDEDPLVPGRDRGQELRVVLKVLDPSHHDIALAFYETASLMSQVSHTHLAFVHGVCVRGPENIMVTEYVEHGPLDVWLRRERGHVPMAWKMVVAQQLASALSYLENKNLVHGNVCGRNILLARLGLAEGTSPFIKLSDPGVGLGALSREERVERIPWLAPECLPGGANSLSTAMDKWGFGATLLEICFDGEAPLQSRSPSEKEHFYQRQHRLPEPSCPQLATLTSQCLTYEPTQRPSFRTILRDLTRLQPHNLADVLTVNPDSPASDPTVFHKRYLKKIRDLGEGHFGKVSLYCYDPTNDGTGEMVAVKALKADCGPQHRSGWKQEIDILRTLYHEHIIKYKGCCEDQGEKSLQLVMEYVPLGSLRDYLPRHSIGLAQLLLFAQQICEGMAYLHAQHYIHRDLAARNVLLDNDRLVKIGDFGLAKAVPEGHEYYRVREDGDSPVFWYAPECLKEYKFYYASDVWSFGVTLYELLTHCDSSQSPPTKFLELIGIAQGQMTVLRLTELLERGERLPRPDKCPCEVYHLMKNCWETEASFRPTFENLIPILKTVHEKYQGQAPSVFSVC
T3 sequence (O60674 whole entry V617F): as the sequence (O60674 whole entry) above, with V617F counted along it
T1 sequence (P23458 whole entry): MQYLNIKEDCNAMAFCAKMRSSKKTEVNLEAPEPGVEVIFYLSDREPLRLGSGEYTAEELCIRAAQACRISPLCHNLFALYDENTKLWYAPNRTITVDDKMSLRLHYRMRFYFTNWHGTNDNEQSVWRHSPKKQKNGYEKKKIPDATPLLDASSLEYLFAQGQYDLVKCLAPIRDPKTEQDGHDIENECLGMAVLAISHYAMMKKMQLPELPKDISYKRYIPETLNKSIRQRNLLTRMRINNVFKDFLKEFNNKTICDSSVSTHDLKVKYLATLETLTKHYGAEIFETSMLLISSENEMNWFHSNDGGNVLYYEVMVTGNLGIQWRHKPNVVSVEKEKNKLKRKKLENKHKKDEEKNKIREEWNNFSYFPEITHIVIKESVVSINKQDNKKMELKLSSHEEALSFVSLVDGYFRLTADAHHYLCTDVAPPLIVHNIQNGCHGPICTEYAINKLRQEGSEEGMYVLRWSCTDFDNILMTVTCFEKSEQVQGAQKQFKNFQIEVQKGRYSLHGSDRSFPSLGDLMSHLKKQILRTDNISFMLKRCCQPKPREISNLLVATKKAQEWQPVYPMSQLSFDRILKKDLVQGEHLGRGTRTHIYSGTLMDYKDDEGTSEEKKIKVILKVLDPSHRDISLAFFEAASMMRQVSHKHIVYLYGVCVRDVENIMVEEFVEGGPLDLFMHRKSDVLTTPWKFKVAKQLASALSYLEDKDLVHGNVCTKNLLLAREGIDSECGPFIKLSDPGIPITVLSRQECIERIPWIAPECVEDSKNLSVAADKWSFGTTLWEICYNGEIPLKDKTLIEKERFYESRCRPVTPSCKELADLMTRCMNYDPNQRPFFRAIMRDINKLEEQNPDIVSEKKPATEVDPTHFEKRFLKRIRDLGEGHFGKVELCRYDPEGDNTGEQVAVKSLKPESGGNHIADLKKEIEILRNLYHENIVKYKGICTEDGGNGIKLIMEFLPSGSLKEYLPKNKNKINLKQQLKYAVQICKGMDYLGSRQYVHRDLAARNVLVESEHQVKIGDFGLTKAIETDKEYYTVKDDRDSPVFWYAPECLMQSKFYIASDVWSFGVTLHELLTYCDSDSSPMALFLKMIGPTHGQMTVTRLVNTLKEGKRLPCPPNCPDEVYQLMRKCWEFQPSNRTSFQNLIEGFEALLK

Regarding `CCOc1ccc(-c2nc(Nc3cnn(C)c3)ncc2C)cc1` [Example 50, 4-(4-ethoxyphenyl)-5-methyl-N-(1-methyl-1H-pyrazol-4-yl)pyrimidin-2-amine, reference compound], the IC50 stood at 151 nM at JAK1 (setting [1]), 201 nM on JAK2 (setting [2]), 343 nM on JAK2V617F (setting [3]) and 157 nM on TYK2 (setting [4]).

In the case of `Cc1cnc(Nc2cnn(C3CC3)c2)nc1-c1ccc(OCC(C)(C)C#N)cc1` [Example 1, 3-(4-(2-((1-cyclopropyl-1H-pyrazol-4-yl)amino)-5-methylpyrimidin-4-yl)phenoxy)-2,2-dimethylpropanenitrile], the IC50 at JAK1 (setting [5]) turned out to be 4.8 nM; on JAK2 (setting [6]), 0.27 nM; on JAK2V617F (setting [7]) it was 3.18 nM; on TYK2 (setting [8]), 12 nM.

In the case of `CCOc1ccc(-c2nc(Nc3cnn(C)c3)ncc2C)cc1F` [Example 46, 4-(4-ethoxy-3-fluorophenyl)-5-methyl-N-(1-methyl-1H-pyrazol-4-yl)pyrimidin-2-amine, reference compound], the IC50 on JAK1 (setting [1]) came out at 40.6 nM; on JAK2 (setting [2]), 60.6 nM; at JAK2V617F (setting [3]), 86.3 nM; on TYK2 (setting [4]) it was 74.9 nM.

For the compound `Cc1cnc(Nc2cnn(C3CCN(C)CC3)c2)nc1-c1ccc(OCC(C)(C)C#N)cc1` [Example 17, 2,2-dimethyl-3-(4-(5-methyl-2-((1-(1-methylpiperidin-4-yl)-1H-pyrazol-4-yl)amino)pyrimidin-4-yl)phenoxy)propanenitrile], the IC50 on JAK1 (setting [5]) is less than 2.5 nM; on JAK2 (setting [6]), less than 0.25 nM; at JAK2V617F (setting [7]) it was less than 1.25 nM; on TYK2 (setting [8]), less than 1.25 nM.

Turning to `Cc1cnc(Nc2cnn(C3CC3)c2)nc1-c1ccc(N(C)CC2(C#N)CC2)c(F)c1` [Example 33, 1-(((4-(2-((1-cyclopropyl-1H-pyrazol-4-yl)amino)-5-methylpyrimidin-4-yl)-2-fluorophenyl)(methyl)amino)methyl) cyclopropanecarbonitrile], the IC50 was 10.8 nM on JAK1 (setting [5]), less than 0.25 nM at JAK2 (setting [6]), 6.16 nM on JAK2V617F (setting [7]) and 30 nM on TYK2 (setting [8]).

In the case of `Cc1cnc(Nc2cnn(C3CC3)c2)nc1-c1ccc(OCC(C)(C)C#N)c(F)c1` [Example 4, 3-(4-(2-((1-cyclopropyl-1H-pyrazol-4-yl)amino)-5-methylpyrimidin-4-yl)-2-fluorophenoxy)-2,2-dimethylpropanenitrile], the IC50 at JAK1 (setting [5]) is less than 2.5 nM; on JAK2 (setting [6]), 0.425 nM; on JAK2V617F (setting [7]) it was less than 1.25 nM; on TYK2 (setting [8]), less than 1.25 nM.

`COCCn1cc(Nc2ncc(C)c(-c3ccc(OCC(C)(C)C#N)c(F)c3)n2)cn1` [Example 19, 3-(2-fluoro-4-(2-((1-(2-methoxyethyl)-1H-pyrazol-4-yl)amino)-5-methylpyrimidin-4-yl)phenoxy)-2,2-dimethylpropanenitrile]: the IC50 was less than 2.5 nM on JAK1 (setting [5]), less than 0.25 nM on JAK2 (setting [6]), less than 1.25 nM at JAK2V617F (setting [7]) and less than 1.25 nM on TYK2 (setting [8]).

Take `COCCn1cc(Nc2ncc(C)c(-c3ccc(OCC4(C#N)CC4)c(F)c3)n2)cn1` [Example 21, 1-((2-fluoro-4-(2-((1-(2-methoxyethyl)-1H-pyrazol-4-yl)amino)-5-methylpyrimidin-4-yl)phenoxy)methyl)cyclopropane-carbonitrile]: the IC50 on JAK1 (setting [5]) was 7.31 nM; at JAK2 (setting [6]), less than 0.25 nM; on JAK2V617F (setting [7]) it was less than 1.25 nM; at TYK2 (setting [8]) it was less than 1.25 nM.

For the compound `CCOc1ccc(-c2nc(Nc3cnn(C(C)C)c3)ncc2C)cc1F` [Example 49, 4-(4-ethoxy-3-fluorophenyl)-N-(1-isopropyl-1H-pyrazol-4-yl)-5-methylpyrimidin-2-amine, reference compound], the IC50 at JAK1 (setting [1]) came out at 52.6 nM; on JAK2 (setting [2]), 80.7 nM; at JAK2V617F (setting [3]) it was 103 nM; at TYK2 (setting [4]), 41.3 nM.
